≈ marks a conversion by molar mass, not a printed value.
Assays:
[1] = blood to plasma partition; format: in vitro ADME; details: heparinized whole blood, rabbit blood, 37 °C, n = 3
Experimental: The spiked blood samples were kept at 37 °C in a shaking water bath for one hour, and plasma was then obtained by centrifugation at 37 °C. Aliquots of about 400 μL, of each plasma sample were kept frozen at −80 °C until analysis. The blood to plasma distribution ratio was determined from the ratio of the nominal total whole blood concentration and the measured plasma concentration for each compound.

[2] = plasma protein binding (ultrafiltration); format: in vitro ADME; details: for fraction unbound at 1 h, 250 μg/L / fraction unbound at 1 h, 1000 μg/L / fraction unbound at 1 h: rabbit, plasma; for fraction unbound at 1 h, 250 μg/L / fraction unbound at 1 h, 1000 μg/L: n = 3, read-out: Plasma protein binding (% bound) (converted)
Experimental: The remaining volume of the plasma samples obtained by centrifugation in the blood to plasma partition experiment, about 600 μL, was immediately placed in disposable ultrafiltration devices (Centrifree®, EMD Millipore Corp., Billerica, MA, USA), and centrifuged in a temperature controlled centrifuge at 37 °C. The ultrafiltrate collected in the ultrafiltration device cup was stored at −20 °C until analysis. The plasma protein binding for the three compounds in rabbit plasma was determined in triplicates at two different concentrations. The total (free + bound) plasma concentration is the concentration in the plasma samples obtained by centrifugation in the blood to plasma partition experiment, while the free (unbound) concentration is the concentration in the ultrafiltrate. The percentage bound was calculated from the free concentration and the corresponding total concentration according to Equation (1). (1) % Bound = Total concentration−Free concentration/Total concentration × 100

[3] = pharmacokinetics after single IV administration; format: in vivo; details: rabbit, 5 mg/kg; for AUC / half-life / k el: plasma; for AUC / half-life / CLT: n = 4; for k el: n = 4, read-out: Elimination rate constant (converted)
From the text: IV administration of the compounds under investigation, and collection of blood samples were through a catheter inserted in the marginal ear vein of the rabbit (I-Cath, CharterMed Inc., Winston-Salem, NC, USA). After IV drug administration, blood was withdrawn to fill the cannula and then reinjected three times before obtaining any blood samples to prevent contamination. Furthermore, the cannula was flushed with heparinized saline to prevent blockage of the cannula and prevent sample to sample contamination.
Urine samples were collected utilizing Foly Catheter (size French 8). The catheter was inserted into the rabbit bladder using a lubricant. When urine is collected over a specific time interval, the bladder was irrigated with 3 × 15 mL normal saline at 3 min, 6 min, and 10 min before the end of the urine collection interval [15, 16]. Irrigation of the bladder is necessary to obtain the majority of the drug eliminated in urine during the collection interval.
Three groups of rabbits (n = 4, each) received 5 mg/kg dose of each compound via the IV catheter. This dose was selected based on the results of a preliminary experiment to achieve measurable plasma concentrations for 8 h using our analytical methods, to ensure good characterization of the plasma concentration-time profile. Accurately weighed Lzd and PH027 powder were dissolved first in 600 μL of ethanol using an ultrasound water bath. The resulting solution was then diluted with normal saline to produce the solutions used for IV administration, which consist of the dose of the compound dissolved in 3 mL of 20% ethanol in normal saline. PH051 required the use of slightly larger volume of ethanol to achieve complete dissolution. So, 900 μL of ethanol were used, and the resulting solution used for IV administration consisted of PH051 dose dissolved in 3 mL of 30% ethanol in normal saline. The difference in the volume of ethanol administered, 300 μL, which was necessary to ensure complete dissolution of PH051, should not have a significant effect on the pharmacokinetic behavior of PH051. The solutions were administered slowly over a period of […] administration, serial blood and urine samples were obtained over a period of 8 h. Plasma was obtained from blood by centrifugation, and samples were kept at −80 °C until analysis. The volumes of urine samples were determined and recorded, and aliquots were kept at −80 °C until analysis.
(§1) The pharmacokinetic parameters for each of the three compounds including half-life (t1/2), volume of distribution (Vd), elimination rate constant (k), area under the plasma concentration-time curve (AUC), total body clearance (CLT), renal clearance (CLR), and oral bioavailability (F) were determined using the general pharmacokinetic parameter calculation procedures using PKPD tools for Microsoft Excel. The obtained pharmacokinetic parameters for each compound were compared using Statistical Package of Social Sciences (SPSS) to determine the difference in the pharmacokinetic behavior for the three compounds.

[4] = pharmacokinetics after single oral administration as suspension; format: in vivo; details: New Zealand White, plasma, rabbit, 20 mg/kg, n = 4
Experimental: The pediatric feeding tube was pushed until it reached the stomach.
Three groups of rabbits (n = 4, each) received 20 mg/kg oral dose of each compound. […] Accurately weighted amounts of each compound were dissolved/suspended in 20 mL of warm normal saline using an ultrasound water bath. […] The solutions/suspensions of the three compounds were administered orally to the rabbits using a pediatric feeding tubes. After oral administration of each compound, serial blood samples were obtained through the IV catheter, over a period of 10 h after administration. Plasma was obtained from blood by centrifugation, and samples were kept at −80 °C until analysis.
as §1

[5] = pharmacokinetics after single oral administration as microemulsion; format: in vivo; details: plasma, rabbit, 20 mg/kg, n = 3; for AUC / Cmax / Tmax: New Zealand White; for bioavailability: White New Zealand
Experimental: Three groups of rabbits (n = 3, each) received 20 mg/kg oral dose of each compound in the form of microemulsion through a pediatric feeding tube. After administration, serial blood samples were obtained through the IV catheter, over a period of 10 h. Plasma was obtained from blood by centrifugation, and samples were kept at −80 °C until analysis.
as §1

[6] = system: Staphylococcus aureus and Enterococci spp; set-up: method as in PMID 12467705, PMID 15911326, PMID 17140706, PMID 19376613, PMID 23811087; details: clinical isolates; cited from earlier work
Streptococcus pneumoniae = system: Streptococcus pneumoniae; set-up: method as in PMID 12467705, PMID 15911326, PMID 17140706, PMID 19376613, PMID 23811087; details: cited from earlier work
S. aureus Giorgio = system: S. aureus Giorgio; set-up: method as in ref unpublished data from Jin-Hwan Kwak at Handong Global University; details: oral suspension 1 and 4 h after infection, survival recorded for 72 h; ref unpublished data from Jin-Hwan Kwak at Handong Global University; cited from earlier work
[7] = set-up: method as in unpublished data from our laboratory; details: rabbit urine after IV administration; ref unpublished data from our laboratory; cited from earlier work
[8] = biopharmaceutical classification system (BCS) class; details: assigned from lower aqueous solubility than Lzd and calculated Log P less than 1.7

SMILES | blood plasma ratio at 1 h, 250 μg/L [1] | blood plasma ratio at 1 h, 1000 μg/L [1] | fraction unbound at 1 h, 250 μg/L [2] | fraction unbound at 1 h, 1000 μg/L [2] | fraction unbound at 1 h ([2]; over both concentrations) | AUC ([3]; White New Zealand) [ng·h/mL] | half-life ([3]; White New Zealand) [min] | k el ([3]; White New Zealand) [s⁻¹] | CLT [3] [L/h/kg] | AUC [4] [ng·h/mL] | Cmax [4] [ng/mL] | Tmax [4] [h] | bioavailability [4] [%] | AUC [5] [ng·h/mL] | Cmax [5] [ng/mL] | Tmax [5] [h] | bioavailability [5] [%] | MIC [6] [mg/L] | MIC (Streptococcus pneumoniae) [mg/L] | in vivo activity against systemic mice infection (S. aureus Giorgio) | also measured
O=C1O[C@@H](Cn2ccnn2)CN1c1ccc(N2CCOCC2)c(F)c1 [PH027] | 0.96 ± 0.032 | 1.01 ± 0.021 | 0.613 | 0.622 | 0.62 to 0.63 | 5670 ± 933 | 68.7 ± 12.1 | 0.000168 | 0.882 ± 0.23 | 5010 ± 2430 | 1620 ± 820 | 1 | 22.1 | 16600 | 2870 ± 392 | 2 | 72.9 | 0.5 to 1.0 | 0.5 (≈ 1.44 µM) | lower in vivo activity | CL renal ([3]; White New Zealand, urine and plasma, from renal excretion rate and plasma drug concentration, read-out: Renal clearance (converted)): 3.8 mL/h/kg; main metabolic route [7]: metabolized mainly through oxidation; BCS class [8]: Class IV
O=C1O[C@@H](Cn2ccnn2)CN1c1ccc(N2CCN(C(=O)C(F)(F)F)CC2)c(F)c1 [PH051] | 0.772 ± 0.022 | 0.833 ± 0.015 | 0.089 | 0.091 ± 0.0019 | 0.09 to 0.1 | 1950 ± 986 | 175 ± 46.1 | 6.6e-05 | 2.564 ± 1.212 | 369 ± 378 | 69.7 ± 14.8 | 1 | 4.73 | 1080 ± 426 | 731 ± 412 | 0.5 | 13.9 | 0.25 to 0.5 | 1.0 (≈ 2.26 µM) | lower in vivo activity | plasma protein binding ([2]; rabbit plasma, over both concentrations): 91%; Fraction excreted unchanged in urine ([3]; ratio of renal clearance to total body clearance): only trace amounts; main metabolic route [7]: amide hydrolysis; BCS class [8]: Class IV

From paper PMC5620575 (Pharmaceutics, 2017)
